Laboratory results published in PMC10110893, “[…]-derived synthetic cannabinoids inhibit T-type calcium channels with divergent effects on seizures in rodent models of epilepsy” (Frontiers in Physiology, 2023).

Key:
[1] = system: Genetic Absence Epilepsy Rat from Strasbourg (GAERS); assay: Spike-and-wave discharges (EEG) in GAERS; format: in vivo
Method: GAERS experiments were conducted in accordance with the standards of the Canadian Council on Animal Care and approved by the University of Saskatchewan Animal Research Ethics Board (protocol 20130118). GAERS were initially sourced from the University of Melbourne to establish a Canadian GAERS colony in 2010 ([Powell et al., 2014]) and weanlings were provided by the Snutch Laboratory at the University of British Columbia to the University of Saskatchewan in 2013 (snutchlab.msl.ubc.ca) ([Marks et al., 2016]; [Marks et al., 2019]). GAERS were maintained on a 12 h light/dark cycle with lights on at 0700 and access to food and water ad libitum except during EEG recordings.
GAERS display reliable spike and wave discharges (SWD) characteristic of childhood absence epilepsy (CAE) ([Tringham et al., 2012]; [Marks et al., 2019]; [Roebuck et al., 2021]; [McElroy et al., 2022]; [Roebuck et al., 2022]). Experiments were conducted in male (n = 11; two removed due to poor recording integrity) and female (n = 5) GAERS. Group sizes were determined based on previous experiments and availability of age, sex, and litter matched animals ([Marks et al., 2019]; [McElroy et al., 2022]; [Roebuck et al., 2022]). Animals were well handled and habituated to the recording protocol prior to testing. Baseline recordings were performed prior to sessions with drug treatment and SB2193 (10, 30, 100 mg/kg) or vehicle (5 mL/kg) was administered (i.p.) ∼15–20 min prior to recordings using a within-subjects design (5–7 days washout periods between treatments). SB2193 was freshly prepared in ethanol-Kolliphor (Sigma Aldrich)-saline (1:1:18 ratio).
Construction and implantation of electrodes proceeded according to established protocols ([Farrell et al., 2018]; [Marks et al., 2019]; [McElroy et al., 2022]; [Roebuck et al., 2022]). Surgeries were performed under isoflurane anaesthesia with buprenorphine, anafen, and bupivicaine (topical) used as analgesics. Bipolar electrodes were chronically implanted bilaterally in somatosensory cortex (A/P 0.6 mm, M/L 5.5 mm, D/V −3.0 mm, relative to bregma) ([Polack et al., 2007]). Implants were secured with 3.2 mm stainless steel screws (one served as a ground) and dental cement. Animals were given a 1-week recovery period before habituation and testing.
Following recovery from surgery, animals were handled for 3–4 days and habituated to the EEG tether and hook-up process at least once before baseline recordings. Local field potentials (LFP) were acquired by tethered EEG (Grass Technologies), amplified 5,000x, and digitized at 100 Hz ([Farrell et al., 2018]; [Marks et al., 2019]; [McElroy et al., 2022]; [Roebuck et al., 2022]). Recordings (4 h) were conducted in two clear Plexiglas boxes (32 cm × 32 cm) and treatments were randomized such that each animal received each treatment. During recording sessions, animals were prevented from sleeping with gentle taps on the chamber door as necessary. Animals were perfused to confirm electrode placement following testing.
SWDs were analysed using a custom MATLAB (MathWorks) script developed by Dr. Stuart Cain and Jeff LeDue at the University of British Columbia. SWDs were assessed between 7 and 12 Hz and defined as bursts > 3x baseline amplitude >0.5 s as previously described ([Powell et al., 2014]; [Farrell et al., 2018]; [Marks et al., 2019]; [Roebuck et al., 2021]; [McElroy et al., 2022]; [Roebuck et al., 2022]). SWDs were analysed semi-automatically using Matlab and manually confirmed by a researcher blinded to treatment. A second researcher re-analysed a subset of files and interrater reliability was confirmed. Treatment data are normalized to initial non-treatment baseline data (e.g., % change) to account for SWD variability between subjects. Raw SWD data are also reported for comparison.
Time-binned data were analysed using a two-way analysis of variance (ANOVA) with factors of treatment (vehicle, 10, 30, 100 mg/kg SB2193) and time (1, 2, 3, 4 h post-treatment). […]

human Cav3.3 = biological target: T1, human Cav3.3 (Homo sapiens, UniProt Q9P0X4); assay: FLIPR calcium flux assay, Cav3.3; format: cell-based
T1 construct: expressed in transfected cells; host or cells: HEK293 FlpIn T-Rex cells (Invitrogen)
T1 sequence (Q9P0X4 whole entry): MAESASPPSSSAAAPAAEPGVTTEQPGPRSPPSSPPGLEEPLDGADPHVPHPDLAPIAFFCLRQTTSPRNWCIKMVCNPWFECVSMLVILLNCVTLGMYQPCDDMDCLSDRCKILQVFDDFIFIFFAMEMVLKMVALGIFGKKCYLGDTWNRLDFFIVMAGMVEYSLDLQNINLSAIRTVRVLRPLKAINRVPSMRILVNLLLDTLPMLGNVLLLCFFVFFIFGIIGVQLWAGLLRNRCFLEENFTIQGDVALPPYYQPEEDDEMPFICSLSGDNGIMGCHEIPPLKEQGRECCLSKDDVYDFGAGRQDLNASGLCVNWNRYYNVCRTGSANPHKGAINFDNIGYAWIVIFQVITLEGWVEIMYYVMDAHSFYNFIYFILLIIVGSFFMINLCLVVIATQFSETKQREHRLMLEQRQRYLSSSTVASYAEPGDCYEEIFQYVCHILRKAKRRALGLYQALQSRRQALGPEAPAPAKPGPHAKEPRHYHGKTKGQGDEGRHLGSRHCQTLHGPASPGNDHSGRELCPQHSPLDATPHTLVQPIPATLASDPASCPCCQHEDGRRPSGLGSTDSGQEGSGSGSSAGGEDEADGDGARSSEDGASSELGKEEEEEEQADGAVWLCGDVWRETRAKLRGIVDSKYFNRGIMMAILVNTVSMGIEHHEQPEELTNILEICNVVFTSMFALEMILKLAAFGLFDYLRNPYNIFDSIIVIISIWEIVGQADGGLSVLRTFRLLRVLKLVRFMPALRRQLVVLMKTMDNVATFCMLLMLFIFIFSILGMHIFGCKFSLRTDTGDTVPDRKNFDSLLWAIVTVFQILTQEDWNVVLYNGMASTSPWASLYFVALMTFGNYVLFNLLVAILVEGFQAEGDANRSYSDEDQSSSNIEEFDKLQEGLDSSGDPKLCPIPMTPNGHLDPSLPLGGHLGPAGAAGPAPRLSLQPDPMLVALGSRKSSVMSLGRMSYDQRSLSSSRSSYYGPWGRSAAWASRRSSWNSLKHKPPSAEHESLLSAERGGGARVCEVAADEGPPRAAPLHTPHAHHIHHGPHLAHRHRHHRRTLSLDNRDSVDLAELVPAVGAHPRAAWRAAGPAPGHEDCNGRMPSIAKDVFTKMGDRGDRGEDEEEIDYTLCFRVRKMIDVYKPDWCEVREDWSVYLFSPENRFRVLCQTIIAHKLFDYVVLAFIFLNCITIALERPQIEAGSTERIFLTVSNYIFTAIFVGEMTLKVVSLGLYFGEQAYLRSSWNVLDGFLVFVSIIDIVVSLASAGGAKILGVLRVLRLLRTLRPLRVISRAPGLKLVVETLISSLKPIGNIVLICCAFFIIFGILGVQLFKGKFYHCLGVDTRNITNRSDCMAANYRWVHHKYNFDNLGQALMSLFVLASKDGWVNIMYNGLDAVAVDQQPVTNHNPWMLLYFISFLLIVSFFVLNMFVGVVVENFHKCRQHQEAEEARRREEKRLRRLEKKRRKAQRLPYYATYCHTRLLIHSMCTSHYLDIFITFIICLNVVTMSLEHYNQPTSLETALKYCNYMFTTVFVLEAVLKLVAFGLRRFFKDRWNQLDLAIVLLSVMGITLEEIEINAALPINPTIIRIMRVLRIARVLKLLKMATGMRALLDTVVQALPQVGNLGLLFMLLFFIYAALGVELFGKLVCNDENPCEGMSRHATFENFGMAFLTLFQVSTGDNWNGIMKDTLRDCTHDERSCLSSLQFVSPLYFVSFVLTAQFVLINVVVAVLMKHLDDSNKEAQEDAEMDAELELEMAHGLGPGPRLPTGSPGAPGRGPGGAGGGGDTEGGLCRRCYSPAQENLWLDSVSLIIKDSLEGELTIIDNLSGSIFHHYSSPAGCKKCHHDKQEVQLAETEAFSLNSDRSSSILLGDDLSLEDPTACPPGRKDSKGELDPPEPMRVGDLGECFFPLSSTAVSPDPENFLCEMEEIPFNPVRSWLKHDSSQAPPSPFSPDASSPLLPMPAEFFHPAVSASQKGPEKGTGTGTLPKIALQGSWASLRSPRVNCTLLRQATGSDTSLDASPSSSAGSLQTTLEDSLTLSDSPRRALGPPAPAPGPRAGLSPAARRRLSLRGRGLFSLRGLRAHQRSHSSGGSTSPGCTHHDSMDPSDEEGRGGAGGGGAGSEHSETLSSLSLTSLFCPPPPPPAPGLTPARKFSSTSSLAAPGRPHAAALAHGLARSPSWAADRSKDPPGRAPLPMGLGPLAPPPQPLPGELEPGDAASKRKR
Method: HEK293 FlpIn T-Rex cells (Invitrogen, CA, United States) stably expressing human Cav3.1, Cav3.2, or Cav3.3 were maintained in Dulbecco’s Modified Eagle Medium (DMEM) supplemented with 10% foetal bovine serum (FBS), 1% penicillin-streptomycin (P/S) at 37°C, and 5% CO2 as previously described ([Bladen et al., 2021]; [Udoh et al., 2022]). Hygromycin (80 μg/mL) and blasticidin (15 μg/mL) were used as selection antibiotics and cells were passaged at 80% confluency. For experiments, cells were resuspended in Leibovitz’s L-15 media (containing 1% FBS, 1% P/S, 15 mM glucose, 2 μg/mL tetracycline), plated in black, clear-bottomed poly-D-lysine-coated 96-well plates (90 μL) (Corning, NY, United States), and incubated overnight in ambient air at 37°C. All compounds tested in cellular assays were prepared as stock solutions in DMSO and final DMSO concentration was 0.1%.
Intracellular calcium flux was measured using a fluorometric imaging plate-reader (FLIPR) Calcium 5 Assay Kit and FlexStation 3 Microplate Reader (Molecular Devices, San Jose, United States). Calcium 5 dye (90 μL) prepared in low potassium HBSS (Thermo Fisher Scientific) containing (in mM) 145 NaCl, 22 HEPES, 0.338 Na2HPO4, 4.17 NaHCO3, 0.441 KH2PO4, 0.407 MgSO4, 0.493 MgCl2, 1.26 CaCl2, 5.56 glucose, and […] with pH 7.4 was applied to each well and incubated for 1 h at 37°C, ambient air prior to testing.
Fluorescence readings were taken at 2 s intervals (λ excitation = 485 nm, λ emission = 525 nm). Following 2 min baseline reading, 20 μL of SB2193, SB2193F, or NNC 55-0396 (10 nM—10 μM) was added to cells and read for 5 min, then CaCl2 (10 mM) was added and read for 3 min. Baseline fluorescence averaged over the 20 s interval preceding CaCl2 addition was subtracted and normalized to the vehicle response. Changes in fluorescence were measured in relative fluorescence units (RFU). All compounds were assayed in ≥ five independent experiments (n = 5–8) performed in duplicate. Order of compound addition and location on the plate were varied between replicates. Data was fit to a four-parameter non-linear dose-response curve using GraphPad Prism 8.2.0 software (La Jolla, United States) to determine IC50 values.

[2] = 100 mg/kg i.p., 4 h EEG recording
[3] = 30 and 100 mg/kg i.p., 4 h EEG recording

CCCCCn1cc(C(=O)N2CCN(C(=O)OC(C)(C)C)CC2)c2ccccc21 [SB2193] was tested. Which “SWD incidence, raw count data, compared to vehicle” value ([1]; 30 mg/kg i.p., 4 h EEG recording) did it give?
Its value is “significantly increased”.

And the “SWD average duration, raw data, compared to vehicle” value [1, 2]?
Its value is “significantly increased”.

And the “average SWD duration, normalized to baseline, compared to vehicle” value [1, 2]?
The value was “increased”.

What about the SWD frequency ([1]; 10, 30, 100 mg/kg i.p., 4 h EEG recording) of the same compound?
The SWD frequency was “No changes”.

And the “effects on SWDs in the first hour following administration” value ([1]; 10, 30, 100 mg/kg i.p., first hour)?
Its value is “No significant effects”.

What about the “SWD (total) duration, normalized to baseline, compared to vehicle” value [1, 3] of the same compound?
Its value is “significantly increased”.

And the “SWD incidence, normalized to baseline, compared to vehicle” value [1, 3]?
Its value is “significantly increased”.

And the “SWD total duration, raw data, compared to vehicle” value [1, 3]?
The value was “significantly increased”.

What about the IC50 (human Cav3.3) of the same compound?
Its IC50 is 5.4 µM.
